Reference: ChEMBL document CHEMBL5729331, “Small molecule activators of nicotinamide phosphoribosyltransferase (NAMPT) and uses thereof” (2022)

The compounds below were run against Nicotinamide phosphoribosyltransferase (Homo sapiens, UniProt P43490) (assay: Enzyme Assay and NMN Detection: NAMPT reaction was performed in 50 mM HEPES, pH 7.5, containing 5 mM MgCl2, 0.1% Prionex, 0.005% Tween 20, and 1 mM TCEP at room temperature in Greiner 384-well black polypropylene plates. […] Following 2 h incubation the reaction was stopped by addition 2.5 ul 20% acetophenone in dimethyl sulfoxide (DMSO) and 2.5 ul 2 MKOH. Plates were centrifuges and added with 10.5 ul 88% formic acid. […] The increased concentration of NMN was determined from a calibration curve obtained at the time of experiment.).
Chain of Nicotinamide phosphoribosyltransferase (P43490 whole entry): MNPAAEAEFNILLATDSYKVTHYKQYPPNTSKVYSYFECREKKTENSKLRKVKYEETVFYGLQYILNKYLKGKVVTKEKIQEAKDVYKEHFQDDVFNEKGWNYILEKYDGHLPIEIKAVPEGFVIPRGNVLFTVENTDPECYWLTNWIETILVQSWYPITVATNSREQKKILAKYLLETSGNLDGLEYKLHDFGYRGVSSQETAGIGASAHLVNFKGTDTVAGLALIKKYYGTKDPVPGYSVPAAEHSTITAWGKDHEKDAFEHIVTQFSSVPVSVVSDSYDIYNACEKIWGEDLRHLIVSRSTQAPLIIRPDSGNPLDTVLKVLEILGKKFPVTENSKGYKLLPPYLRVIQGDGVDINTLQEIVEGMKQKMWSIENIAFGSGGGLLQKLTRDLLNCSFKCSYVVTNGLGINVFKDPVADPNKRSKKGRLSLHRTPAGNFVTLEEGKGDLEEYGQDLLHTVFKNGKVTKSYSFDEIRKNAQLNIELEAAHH

EC50	Structure (SMILES)
> 20 µM	NC(=O)c1ccc(NC(=O)NCc2ccncc2)nc1
> 20 µM	CCOC(=O)c1ccc(NC(=O)NCc2ccncc2)cn1
> 20 µM	CCOC(=O)c1ccc(NC(=O)NCc2ccncc2)nc1
